The values that follow come from PubChem BioAssay AID328 (DTP/NCI, 2004).

Where “and” joins values, the source holds several entries; their conditions need not be identical. Equal entries are not always repeated. Inconclusive results and toxic doses are left out.

The assay deals with BDF1 mice, P388 leukemia ip, median survival T/C. The experiment in a line: NCI In Vivo Anticancer Drug Screen. Data for tumor model P388 Leukemia (intraperitoneal) in B6D2F1 (BDF1) mice. The conditions noted are these: endpoint: median survival time, higher = longer survival. An outline of the steps: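 Steps: implant the tumour, treat one group with compound and another with vehicle, record survival, then divide treated by control.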

Setting [1] is: dose: 25.0 mg/kg/injection, schedule: Q04DX003 (ip), vehicle: Klucel (hydroxypropylcellulose) (HPC).
Setting [2] is: dose: 25.0 mg/kg/injection, schedule: Q04DX003 (ip), vehicle: saline with Tween-80.
The mark [3] stands for this setting: dose: 50.0 mg/kg/injection, schedule: Q04DX003 (ip), vehicle: Klucel (hydroxypropylcellulose) (HPC).
[4] abbreviates: dose: 50.0 mg/kg/injection, schedule: Q04DX003 (ip), vehicle: saline with Tween-80.
The mark [5] stands for this setting: dose: 100.0 mg/kg/injection, schedule: Q04DX003 (ip), vehicle: Klucel (hydroxypropylcellulose) (HPC).
Setting [6] is: dose: 100.0 mg/kg/injection, schedule: Q04DX003 (ip), vehicle: saline with Tween-80.
Where [7] appears, read: dose: 200.0 mg/kg/injection, schedule: Q01DX009 (ip), vehicle: Klucel (hydroxypropylcellulose) (HPC).
The mark [8] stands for this setting: dose: 200.0 mg/kg/injection, schedule: Q04DX003 (ip), vehicle: Klucel (hydroxypropylcellulose) (HPC).
Where [9] appears, read: dose: 6.25 mg/kg/injection, schedule: Q01DX009 (ip), vehicle: saline with Tween-80.
[10] abbreviates: dose: 12.5 mg/kg/injection, schedule: Q01DX009 (ip), vehicle: saline with Tween-80.
[11] abbreviates: dose: 25.0 mg/kg/injection, schedule: Q01DX009 (ip), vehicle: saline with Tween-80.

Turning to `O=C1N(Cl)C(=O)C(c2ccc(Cl)cc2)(c2ccc(Cl)cc2)N1Cl`, the T/C by setting is: (dose: 22.0 mg/kg/injection, schedule: Q04DX003 (ip), vehicle: saline with Tween-80) 115 % of control; (dose: 22.0 mg/kg/injection, schedule: Q04DX003 (ip), vehicle: saline) 91 % of control; (dose: 25.0 mg/kg/injection, schedule: Q02DX005 (ip), vehicle: Klucel (hydroxypropylcellulose) (HPC)) 110 % of control; under setting [1], 105 % of control; under setting [2], 104 % of control; (dose: 30.0 mg/kg/injection, schedule: Q04DX003 (ip), vehicle: Klucel (hydroxypropylcellulose) (HPC)) 100 % of control. In addition, the T/C by setting is: (dose: 33.0 mg/kg/injection, schedule: Q04DX003 (ip), vehicle: saline with Tween-80) 123 % of control; (dose: 33.0 mg/kg/injection, schedule: Q04DX003 (ip), vehicle: saline) 116 % of control; (dose: 38.5 mg/kg/injection, schedule: Q04DX003 (ip), vehicle: saline with Tween-80) 120 % of control; (dose: 50.0 mg/kg/injection, schedule: Q02DX005 (ip), vehicle: Klucel (hydroxypropylcellulose) (HPC)) 124 % of control; under setting [3], 96 % of control; under setting [4], 153 % of control. Besides, the T/C runs as follows: (dose: 50.0 mg/kg/injection, schedule: Q04DX003 (ip), vehicle: saline) 120 % of control; (dose: 60.0 mg/kg/injection, schedule: Q04DX003 (ip), vehicle: Klucel (hydroxypropylcellulose) (HPC)) 111 % of control; (dose: 75.0 mg/kg/injection, schedule: Q04DX003 (ip), vehicle: saline with Tween-80) 150 % of control; (dose: 75.0 mg/kg/injection, schedule: Q04DX003 (ip), vehicle: saline) 120 % of control; (dose: 100.0 mg/kg/injection, schedule: Q02DX005 (ip), vehicle: Klucel (hydroxypropylcellulose) (HPC)) 151 % of control; under setting [5], 96 % of control. In addition, the T/C reads like this: (dose: 100.0 mg/kg/injection, schedule: Q04DX003 (ip), vehicle: saline sonified) 160 % of control; under setting [6], 150 % of control and 154 % of control; (dose: 132.0 mg/kg/injection, schedule: Q02DX005 (ip), vehicle: Klucel (hydroxypropylcellulose) (HPC)) 150 % of control; (dose: 132.0 mg/kg/injection, schedule: Q04DX003 (ip), vehicle: saline with Tween-80) 112 % of control and 117 % of control; under setting [7], 156 % of control; (dose: 200.0 mg/kg/injection, schedule: Q02DX005 (ip), vehicle: Klucel (hydroxypropylcellulose) (HPC)) 155 % of control and 171 % of control. The T/C is, setting by setting: under setting [8], 98 % of control; (dose: 200.0 mg/kg/injection, schedule: Q04DX003 (ip), vehicle: saline sonified) 180 % of control; (dose: 300.0 mg/kg/injection, schedule: Q01DX009 (ip), vehicle: Klucel (hydroxypropylcellulose) (HPC)) 95 % of control; (dose: 300.0 mg/kg/injection, schedule: Q02DX005 (ip), vehicle: Klucel (hydroxypropylcellulose) (HPC)) 152 % of control; (dose: 300.0 mg/kg/injection, schedule: Q04DX003 (ip), vehicle: Klucel (hydroxypropylcellulose) (HPC)) 114 % of control; (dose: 380.0 mg/kg/injection, schedule: Q04DX003 (ip), vehicle: Klucel (hydroxypropylcellulose) (HPC)) 100 % of control. Moreover, the T/C (dose: 400.0 mg/kg/injection, schedule: Q04DX003 (ip), vehicle: saline sonified) was 190 % of control.
For the compound `CC1(C)C(=O)N(Cl)C(=O)N1Cl`, the T/C under setting [9] was 109 % of control, the T/C under setting [10] was 113 % of control and the T/C under setting [11] was 263 % of control.
Take `COc1ccc(Cc2c3cc(OC)c(OC)cc3cc[n+]2C)cc1OC`: the T/C is 90 % of control under setting [11]; 100 % of control (dose: 50.0 mg/kg/injection, schedule: Q01DX009 (ip), vehicle: saline with Tween-80); 108 % of control under setting [6].
As to `C=CCN1C(=O)C=CC1=O`, the T/C by setting is: (dose: 0.75 mg/kg/injection, schedule: Q01DX009 (ip), vehicle: saline) 102 % of control; (dose: 3.0 mg/kg/injection, schedule: Q01DX009 (ip), vehicle: saline) 117 % of control.
In the case of `CC/C(C)=N\NC(=S)SC`, the T/C is 98 % of control (dose: 3.13 mg/kg/injection, schedule: Q01DX009 (ip), vehicle: saline with Tween-80); 102 % of control under setting [9]; 102 % of control under setting [10].
As to `COc1cc(Br)c(/C=C/[N+](=O)[O-])cc1OC`, the T/C (dose: 12.5 mg/kg/injection, schedule: Q04DX003 (ip), vehicle: saline with Tween-80) is 105 % of control; the T/C under setting [2] is 105 % of control and 107 % of control; the T/C under setting [4] is 113 % of control; the T/C under setting [6] is 123 % of control.
Consider `O=C(O)C1CC/C=C\CCC1` (centres undefined), for which the T/C was 100 % of control (dose: 100.0 mg/kg/injection, schedule: Q04DX003 (sc), vehicle: olive oil, sesame oil, peanut oil); 100 % of control (dose: 200.0 mg/kg/injection, schedule: Q04DX003 (sc), vehicle: olive oil, sesame oil, peanut oil); 91 % of control (dose: 400.0 mg/kg/injection, schedule: Q04DX003 (sc), vehicle: olive oil, sesame oil, peanut oil).
As to `O=C(COc1ccccc1)NCCO`, the T/C reads like this: (dose: 100.0 mg/kg/injection, schedule: Q01DX009 (ip), vehicle: Klucel (hydroxypropylcellulose) (HPC)) 100 % of control; under setting [5], 91 % of control; under setting [7], 100 % of control; under setting [8], 91 % of control; (dose: 400.0 mg/kg/injection, schedule: Q01DX009 (ip), vehicle: Klucel (hydroxypropylcellulose) (HPC)) 100 % of control; (dose: 400.0 mg/kg/injection, schedule: Q04DX003 (ip), vehicle: Klucel (hydroxypropylcellulose) (HPC)) 91 % of control.
Turning to `CCN(CC)CCCC(C)NC/C=C/CNC(C)CCCN(CC)CC` (centres undefined), the T/C was 99 % of control (dose: 0.78 mg/kg/injection, schedule: Q01DX009 (ip), vehicle: water); 91 % of control (dose: 1.56 mg/kg/injection, schedule: Q01DX009 (ip), vehicle: water); 91 % of control (dose: 3.12 mg/kg/injection, schedule: Q01DX009 (ip), vehicle: water); 86 % of control (dose: 12.5 mg/kg/injection, schedule: Q01DX009 (ip), vehicle: water); 91 % of control (dose: 25.0 mg/kg/injection, schedule: Q01DX009 (ip), vehicle: water); 99 % of control (dose: 50.0 mg/kg/injection, schedule: Q01DX009 (ip), vehicle: water).
Consider `CC1(C)O[Te]2(OC1(C)C)OC(C)(C)C(C)(C)O2`, for which the T/C (dose: 12.5 mg/kg/injection, schedule: Q01DX001 (ip), vehicle: saline with Tween-80) is 104 % of control and the T/C (dose: 25.0 mg/kg/injection, schedule: Q01DX001 (ip), vehicle: saline with Tween-80) is 113 % of control.
As for `CC(=O)OC1CCC2(C)C(CC(=O)C(C)C23CCC2(C=COC2)O3)C1(C)C` (centres undefined), the T/C reads like this: (dose: 25.0 mg/kg/injection, schedule: Q01DX009 (ip), vehicle: saline) 113 % of control; (dose: 50.0 mg/kg/injection, schedule: Q01DX009 (ip), vehicle: saline) 105 % of control; (dose: 100.0 mg/kg/injection, schedule: Q01DX009 (ip), vehicle: saline with Tween-80) 109 % of control; (dose: 100.0 mg/kg/injection, schedule: Q01DX009 (ip), vehicle: saline) 122 % of control; (dose: 200.0 mg/kg/injection, schedule: Q01DX009 (ip), vehicle: saline with Tween-80) 102 % of control.
Regarding `O=C(OCCBr)c1ccccc1[N+](=O)[O-]`, the T/C is 100 % of control (dose: 100.0 mg/kg/injection, schedule: Q04DX003 (ip), vehicle: saline); 104 % of control (dose: 200.0 mg/kg/injection, schedule: Q04DX003 (ip), vehicle: saline); 109 % of control (dose: 400.0 mg/kg/injection, schedule: Q04DX003 (ip), vehicle: saline).
Take `Cc1ccc(C)c(CN(C)C)c1O`: the T/C is 118 % of control under setting [1], 100 % of control under setting [3] and 100 % of control under setting [5].
